In US6433151B1, “Erythromycin derivatives, a process for their preparation and their use as medicaments” (Aventis Pharma S.A., priority 1998, dated 2002):

Key:
Test in all cases: Method of dilutions in a liquid medium (MIC)
Assay type in all cases: cell-based
E. faecalis 02D2UC1 = details: E. faecalis 02D2UC1, ery S; reading after 24 hours
Procedure: (§1) Method of Dilutions in a Liquid Medium
(§2) A series of tubes in which the same amount of sterile nutrient medium is distributed is prepared. Increasing amounts of the product to be studied are distributed in each tube, and each tube is then seeded with a strain of bacteria.
(§3) After incubation for twenty-four hours in an oven at 37° C., the inhibition of growth is evaluated by transillumination, from which the minimum inhibitory concentrations (MIC), expressed in micrograms/cm^3, can be determined.
(§4) The following results were obtained with the product from example 1 and from example 2 (reading taken after 24 hours).

S. aureus 011GO25I = details: oxa S ery R, reading after 24 hours
Procedure: as §1, §2, §3, §4

S. sanguis 02SgGr10I = details: ery R, reading after 24 hours
Procedure: as §1, §2, §3, §4

S. mitis 02MitCB1 = details: S. mitis 02MitCB1, Ery S; reading after 24 hours
Procedure: as §1, §2, §3, §4

S. pyogenes 02A1UC1 = details: S. pyogenes 02A1UC1, ery S; reading after 24 hours
Procedure: as §1, §2, §3, §4

S. epidermidis 012GO11I = details: oxa S ery R, reading after 24 hours
Procedure: as §1, §2, §3, §4

E. faecalis 02D2DU15c = details: ery R, reading after 24 hours
Procedure: as §1, §2, §3, §4

S. pneumoniae 030R01I = details: ery R, reading after 24 hours
Procedure: as §1, §2, §3, §4

S. aureus 011UC4 = details: reading after 24 hours
Procedure: as §1, §2, §3, §4

E. faecium 02D3HT1 = details: E. faecium 02D3HT1, Ery S; reading after 24 hours
Procedure: as §1, §2, §3, §4

S. pneumoniae 030GR20 = details: S. pneumoniae 030GR20, ery S; reading after 24 hours
Procedure: as §1, §2, §3, §4

S. pneumoniae 030PW23c = details: ery R, reading after 24 hours
Procedure: as §1, §2, §3, §4

S. agalactiae 02B1SJ1c = details: ery R, reading after 24 hours
Procedure: as §1, §2, §3, §4

S. pneumoniae 030SJ51 = details: S. pneumoniae 030SJ51, ery R; reading after 24 hours
Procedure: as §1, §2, §3, §4

S. pneumoniae 030SJ1c = details: ery R, reading after 24 hours
Procedure: as §1, §2, §3, §4

S. pneumoniae 030CR18c = details: ery R, reading after 24 hours
Procedure: as §1, §2, §3, §4

S. mitis 02MitGR16I = details: ery R, reading after 24 hours
Procedure: as §1, §2, §3, §4

S. agalactiae 02B1HT1 = details: S. agalactiae 02B1HT1, ery S; reading after 24 hours
Procedure: as §1, §2, §3, §4

[1] = system: Streptococcus gr. G 02GOGR5; details: Streptococcus gr. G 02GOGR5, Ery S; reading after 24 hours
Procedure: as §1, §2, §3, §4

S. pneumoniae 032UC1 = details: S. pneumoniae 032UC1, ery S; reading after 24 hours
Procedure: as §1, §2, §3, §4

[2] = S. aureus 011UC4 + serum 50%, ery S

minimum inhibitory concentrations (MIC) (E. faecalis 02D2UC1)	minimum inhibitory concentrations (MIC) (S. aureus 011GO25I)	minimum inhibitory concentrations (MIC) (S. sanguis 02SgGr10I)	minimum inhibitory concentrations (MIC) (S. mitis 02MitCB1)	minimum inhibitory concentrations (MIC) (S. pyogenes 02A1UC1)	minimum inhibitory concentrations (MIC) (S. epidermidis 012GO11I)	minimum inhibitory concentrations (MIC) (E. faecalis 02D2DU15c)	minimum inhibitory concentrations (MIC) (S. pneumoniae 030R01I)	minimum inhibitory concentrations (MIC) (S. aureus 011UC4; [2])	minimum inhibitory concentrations (MIC) (S. aureus 011UC4; S. aureus 011UC4, ery S)	minimum inhibitory concentrations (MIC) (E. faecium 02D3HT1)	minimum inhibitory concentrations (MIC) (S. pneumoniae 030GR20)	minimum inhibitory concentrations (MIC) (S. pneumoniae 030PW23c)	minimum inhibitory concentrations (MIC) (S. agalactiae 02B1SJ1c)	minimum inhibitory concentrations (MIC) (S. pneumoniae 030SJ51)	minimum inhibitory concentrations (MIC) (S. pneumoniae 030SJ1c)	minimum inhibitory concentrations (MIC) (S. pneumoniae 030CR18c)	minimum inhibitory concentrations (MIC) (S. mitis 02MitGR16I)	minimum inhibitory concentrations (MIC) (S. agalactiae 02B1HT1)	minimum inhibitory concentrations (MIC) [1]	SMILES	further results
0.040 micrograms/cm^3	0.600 micrograms/cm^3	0.150 micrograms/cm^3	<=0.01 micrograms/cm^3	0.040 micrograms/cm^3	0.300 micrograms/cm^3	>20 micrograms/cm^3	0.300 micrograms/cm^3	0.150 micrograms/cm^3	0.080 micrograms/cm^3	0.040 micrograms/cm^3	<=0.01 micrograms/cm^3	0.080 micrograms/cm^3	0.150 micrograms/cm^3	0.080 micrograms/cm^3	0.150 micrograms/cm^3	2.500 micrograms/cm^3	0.080 micrograms/cm^3	0.020 micrograms/cm^3	0.040 micrograms/cm^3	CCC1OC(=O)C(C)C(=O)C(C)C(OC2OC(C)CC(NC)C2O)C(C)(OC)CC(C)C(=O)C(C)C2N(NCCCc3ccnc4ccccc34)C(=O)OC12C [Ex. 2, N-Demethyl-11,12-dideoxy-3-de((2,6-dideoxy-3-C-methyl-3-O-methyl-alpha-L-ribohexopyranosyl)oxy)-6-O-methyl-3-oxo-12,11-(oxycarbonyl(2-(3-(4-quinolinyl)-propyl)-hydrazono))-erythromycin]	minimum inhibitory concentrations (MIC) (S. pneumoniae 032UC1): <=0.01 micrograms/cm^3
0.080 micrograms/cm^3	5.000 micrograms/cm^3	0.150 micrograms/cm^3	0.080 micrograms/cm^3	0.800 micrograms/cm^3	0.150 micrograms/cm^3	>40 micrograms/cm^3	0.150 micrograms/cm^3	0.040 micrograms/cm^3	0.300 micrograms/cm^3	0.080 micrograms/cm^3	<=0.02 micrograms/cm^3	0.150 micrograms/cm^3	0.600 micrograms/cm^3	0.080 micrograms/cm^3	0.080 micrograms/cm^3	10.000 micrograms/cm^3	0.080 micrograms/cm^3	<=0.02 micrograms/cm^3	0.080 micrograms/cm^3	CCC1OC(=O)C(C)C(=O)C(C)C(OC2OC(C)CC(NC)C2O)C(C)(OC)CC(C)C(=O)C(C)C2N(CCCCn3cnc(-c4cccnc4)c3)C(=O)OC12C [Ex. 1, N-Demethyl-11,12-dideoxy-3-de[(2,6-dideoxy-3-C-methyl-3-O-methyl-alpha-L-ribohexopyranosyl)-oxy]-6-O-methyl-3-oxo-12,11-[oxycarbonyl[[4-[4-(3-pyridinyl)-1H-imidazol-1-yl]butyl]imino]]-erythromycin]	minimum inhibitory concentrations (MIC) (S. pneumoniae 032UC1): <=0.02 micrograms/cm^3
